Assay results: BigSolDB 2.1

Cc1cnc(NC(=O)C2=C(O)c3ccccc3S(=O)(=O)N2C)s1
solubility (mole fraction)
Conditions | 293.15 K | 298.15 K | 303.15 K | 308.15 K | 313.15 K
in transcutol | 0.0012 | 0.0013 | 0.0014 | 0.00151 | 0.00165
in water | 1.09e-06 | 1.14e-06 | 1.19e-06 | 1.26e-06 | 1.33e-06
